Laboratory results from patent US20080214558A1, “PYRIMIDINE-2,4-DIAMINE DERIVATIVES AND THEIR USE AS JAK2 KINASE INHIBITORS” (SUPERGEN, INC., priority 2007, published 2008).

What was measured:
[1] = tested on: various cancer cell lines; assay: Cell-Titer-Glo cell survival/proliferation assay; type: cell-based; settings: screened between 300 nM and 10 nM, read-out: IC50 from % survival (Cell-Titer-Glo)
Description: Cell culture-based assays can be used to evaluate the ability of compounds of the invention to inhibit one or more cellular activities, such as cancer cell growth and/or survival. Numerous cancer cell lines can be obtained from the American Type Culture Collection (ATCC) and other sources. Briefly, cells are seeded into 96-well, tissue-culture treated, opaque white plates (Thermo Electron, Vantaa, Finland), at between 600 and 14000 cells per well, depending on the speed of cell proliferation, in 100 ul of appropriate growth medium (determined by the ATCC). Cells are then exposed to the appropriate concentration of drug and allowed to grow in its presence for 96 hours. Following this, 100 ul of Cell-Titer-Glo reagent (Promega, Inc., Madison, Wis.) is added to each well. Plates are then shaken for 2 minutes at room temperature to allow for cell lysis and incubated for 10 minutes at room temperature to stabilize the luminescent signal. Similar to the Kinase-Glo assay reagent from Promega, this reagent contains both luciferase enzyme and its substrate luciferin. Luciferase, activated by ATP in the cell lysate, catalyzes the conversion of luciferin to oxyluciferin, a reaction which produces light. The amount of light produced is proportionate to the amount of ATP in the cell lysate, which is itself proportional to cell number and gives an index of cellular proliferation.
Compound Nos. 1-4, 1-7, 1-11 and 1-17 were screened at a dilution range between 300 nM and 10 nM as JAK2 inhibitors, with percent survival being determined using the Cell-Titer-Glo Assay.

JAK2 V617F = biological target: T1, JAK2 V617F (Homo sapiens, UniProt O60674, V617F); assay: Invitrogen SelectScreen profiling, mutant JAK2; type: biochemical; settings: read-out: IC50 against mutant JAK2 V617F (SelectScreen)
T1 construct: These enzymes include both the JH1 and JH2 homology regions of the protein; purchased Invitrogen Corporation (SelectScreen assay service, Carlsbad, Calif.)
Excerpt: (§1) The JAK2 V617F mutant isoform has recently come into focus for its role in neoplastic transformation. Thus, compounds may also be testing using the SelectScreen™ assay service (Invitrogen Corporation, Carlsbad, Calif.), which includes both wild-type and V617F mutant isoforms of JAK2. These enzymes include both the JH1 and JH2 homology regions of the protein, and differ only at amino acid 617.

JAK2 WT = biological target: T2, JAK2 WT (Homo sapiens, UniProt O60674); assay: Invitrogen SelectScreen profiling, wild-type JAK2; type: biochemical; settings: read-out: IC50 against wild-type JAK2 (SelectScreen)
T2 construct: These enzymes include both the JH1 and JH2 homology regions of the protein; purchased Invitrogen Corporation (SelectScreen assay service, Carlsbad, Calif.)
Excerpt: as §1

[2] = tested on: STAT5-phospho-Y694 in AGS gastric cancer cell line; assay: Western blot of STAT5 phosphorylation in AGS cells; type: cell-based; settings: 24 hours, 5-10 uM, Western blot densitometry
Description: (§2) In order to detect specific inhibition of JAK2 enzyme in cell culture, Western blot assays may also be performed. For this, cells which have been treated with a potential JAK2 inhibitor are lysed with a buffer specific for the isolation and preservation of proteins (1% Nonidet P-40, 120 mM NaCl, 30 mM Tris pH 7.4, 1:100 Protease Inhibitor Cocktail III [Calbiochem/EMD Biosciences], 1:100 Phosphatase Inhibitor Cocktail 1 [Sigma-Aldrich, Saint Louis, Mo.], 1:100 Phosphatase Inhibitor Cocktail 2 [Sigma-Aldrich, Saint Louis, Mo.]). The protein concentration in these lysates is then quantified using the BCA Protein Assay Kit (Pierce). Known amounts of protein, e.g. 50 ug, are loaded onto 10% SDS-polyacrylamide gels and are subjected to reducing, denaturing SDS-PAGE. […]
(§3) In this example, Compound 1-4 is shown to reduce the JAK2-dependent phosphorylation of STAT3 and STAT5 in the AGS gastric cancer cell line. […] Following incubation, cells were lysed and total protein isolated and quantified. […] Densitometry analysis was performed in order to quantify the amount of STAT3 and STAT5 phosphorylation in these treated cells. Phospho-STAT3 and phospho-STAT5 were compared to total STAT3 and STAT5 and the proportion of STAT phosphorylation relative to untreated controls was determined.

[3] = tested on: STAT3-phospho-Y705 in AGS gastric cancer cell line; assay: Western blot of STAT3 phosphorylation in AGS cells; type: cell-based; settings: 24 hours, 5-10 uM, Western blot densitometry
Description: as §2, §3

[4] = tested on: STAT5-phospho-Y694 in HEL cells expressing the V617F mutant of JAK2; assay: Western blot of STAT5 phosphorylation in HEL cells expressing JAK2 V617F; type: cell-based; settings: Homo sapiens, 24 hours, Western blot densitometry, read-out: EC50 for reduction of STAT5 phosphorylation
Description: In order to detect specific inhibition of JAK2 enzyme in cell culture, Western blot assays may also be performed. For this, cells which have been treated with a potential JAK2 inhibitor are lysed with a buffer specific for the isolation and preservation of proteins (1% Nonidet P-40, 120 mM NaCl, 30 mM Tris pH 7.4, 1:100 Protease Inhibitor Cocktail III [Calbiochem/EMD Biosciences], 1:100 Phosphatase Inhibitor Cocktail 1 [Sigma-Aldrich, Saint Louis, Mo.], 1:100 Phosphatase Inhibitor Cocktail 2 [Sigma-Aldrich, Saint Louis, Mo.]). The protein concentration in these lysates is then quantified using the BCA Protein Assay Kit (Pierce). Known amounts of protein, e.g. 50 ug, are loaded onto 10% SDS-polyacrylamide gels and are subjected to reducing, denaturing SDS-PAGE. Electrophoresed proteins are transferred to a nitrocellulose membrane, which is then probed with antibodies to STAT5, pSTAT5 (Tyr 694), STAT3, and pSTAT3 (Tyr 705). As STAT5 and STAT3, at Tyrosine 694 and Tyrosine 705 respectively, are substrates for JAK2, measuring the amount of phosphorylation at these sites in treated cells provides a means by which to evaluate the efficacy of JAK2 inhibitors.
Briefly, HEL cells were plated in 25 cm^2 tissue culture flasks and incubated in the presence of varying concentrations of Compound Nos. 1 or 2 for 24 hours. Following incubation, cells were lysed and total protein isolated and quantified. 50 μg of total protein was electrophoresed and transferred to nitrocellulose membrane, at which point Western Blot analysis was performed using an antibody to STAT5-phospho-Y694. Comparisons to total STAT5 were made. Densitometry analysis was performed in order to quantify the amount of STAT5 phosphorylation in these treated cells.

JAK2 kinase [5] = biological target: T3, JAK2 kinase (Homo sapiens, UniProt O60674); assay: JAK2 kinase inhibition assay (Promega Kinase-Glo); type: biochemical; settings: read-out: IC50 against JAK2 kinase (Promega Kinase-Glo assay)
Excerpt: One illustrative manner in which JAK2 kinase activity can be determined is by quantifying the amount of ATP remaining in solution after an in vitro JAK2 kinase reaction, such as the Kinase-Glo Assay Kit (Promega, Inc., Madison, Wis.). The amount of ATP remaining in the solution after the kinase reaction serves as a substrate for the luciferase to catalyze luciferin to oxyluciferin plus one photon of light. Thus, the luminescent signal read by the Luminoskan Ascent Instrument (Thermo Electron Corp., Milford, Mass.) correlates with the amount of ATP present after the kinase reaction and inversely correlates with the amount of kinase activity. This assay is efficient at determining the IC50 values of kinase inhibitors against the JAK2 kinase. These assays are set up in duplicate 50 ul volumes in white, flat bottom 96 well plates. Inhibitors are added to the solution of 1× kinase buffer, 6 uM ATP, 62.5 uM JAK2-specific substrate, 30 ng of active JAK2 enzyme, and water in serial dilutions ranging from micromolar to nanomolar concentrations. This solution is incubated at 30 degrees Celsius at 360 rpm for two hours. Following the incubation, 50 ul of Kinase-Glo reagent is added to each well, including all positive and negative control wells, and incubated at room temperature for 15 minutes. […] The IC50 values can then be calculated for each inhibitor tested.
IC50 values against JAK2 kinase (using the Promega Kinase-Glo assay) were measured for Compound Nos. 1-4, 1-7, 1-11 and 1-17.

[6] = tested on: nuclear STAT3 in AGS gastric cancer cells; assay: STAT3 nuclear translocation high-content assay (STAT3 HitKit, ArrayScan VTi); type: cell-based
Description: When STAT3 is phosphorylated by JAK2, it forms a homodimer and is translocated to the nucleus to effect transcription of a number of target genes involved in cell proliferation. AGS gastric cancer cells were inoculated onto 96 well plates, and incubated in the presence of 5 μM Compound 1-4 for 1, 5 or 24 hours. Following incubation, cells were stained using the STAT3 HitKit (Thermo-Fisher) and detected using the Molecular Translocation BioApplication on a ArrayScan VTi high-content screening instrument (Thermo-Fisher). Nuclei were pseudostained blue (Hoechst) and STAT3 was pseudostained green (FITC).
Nuclear STAT3 was reduced by greater than 50% 24 h after treatment with Compound 1-4 when compared with nuclear STAT3 levels in untreated samples.

JAK2 kinase [7] = biological target: T3, JAK2 kinase; assay: Radiometric IC50Profiler assay (Millipore-Upstate); type: biochemical; set-up: purchased Millipore-Upstate (KinaseProfiler / IC50Profiler assay service, Dundee, UK); settings: read-out: IC50 (IC50 Profiler data)
Description: Compounds may also be tested using a radiometric assay; namely, the KinaseProfiler™ and IC50Profiler™ assay services (Millipore-Upstate, Dundee, UK). Briefly, compounds are tested at a single concentration (for single-point screening) or at a number of concentrations (for IC50 determinations) against recombinant JAK2 enzyme in the presence of radiolabeled ATP.

T1 sequence (O60674 532-1132 V617F limits assumed): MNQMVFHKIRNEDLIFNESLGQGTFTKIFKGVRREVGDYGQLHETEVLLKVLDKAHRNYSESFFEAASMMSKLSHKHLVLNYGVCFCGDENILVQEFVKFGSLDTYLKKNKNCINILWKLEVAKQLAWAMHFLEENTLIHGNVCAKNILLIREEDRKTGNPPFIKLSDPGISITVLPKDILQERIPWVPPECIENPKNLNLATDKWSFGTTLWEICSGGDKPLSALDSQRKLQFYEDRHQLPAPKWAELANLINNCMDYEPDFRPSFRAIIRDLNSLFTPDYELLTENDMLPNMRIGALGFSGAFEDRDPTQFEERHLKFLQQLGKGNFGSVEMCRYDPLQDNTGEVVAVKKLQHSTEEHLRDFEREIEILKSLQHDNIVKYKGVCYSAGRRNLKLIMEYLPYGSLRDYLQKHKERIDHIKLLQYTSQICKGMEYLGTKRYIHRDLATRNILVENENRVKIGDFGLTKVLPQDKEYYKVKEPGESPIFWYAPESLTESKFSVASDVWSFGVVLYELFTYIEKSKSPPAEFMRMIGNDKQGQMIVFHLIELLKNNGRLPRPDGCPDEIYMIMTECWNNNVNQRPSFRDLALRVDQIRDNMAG
T2 sequence (O60674 532-1132 limits assumed): as the sequence (O60674 532-1132 V617F limits assumed) above, with F86V counted along it
T3 sequence (O60674 whole entry): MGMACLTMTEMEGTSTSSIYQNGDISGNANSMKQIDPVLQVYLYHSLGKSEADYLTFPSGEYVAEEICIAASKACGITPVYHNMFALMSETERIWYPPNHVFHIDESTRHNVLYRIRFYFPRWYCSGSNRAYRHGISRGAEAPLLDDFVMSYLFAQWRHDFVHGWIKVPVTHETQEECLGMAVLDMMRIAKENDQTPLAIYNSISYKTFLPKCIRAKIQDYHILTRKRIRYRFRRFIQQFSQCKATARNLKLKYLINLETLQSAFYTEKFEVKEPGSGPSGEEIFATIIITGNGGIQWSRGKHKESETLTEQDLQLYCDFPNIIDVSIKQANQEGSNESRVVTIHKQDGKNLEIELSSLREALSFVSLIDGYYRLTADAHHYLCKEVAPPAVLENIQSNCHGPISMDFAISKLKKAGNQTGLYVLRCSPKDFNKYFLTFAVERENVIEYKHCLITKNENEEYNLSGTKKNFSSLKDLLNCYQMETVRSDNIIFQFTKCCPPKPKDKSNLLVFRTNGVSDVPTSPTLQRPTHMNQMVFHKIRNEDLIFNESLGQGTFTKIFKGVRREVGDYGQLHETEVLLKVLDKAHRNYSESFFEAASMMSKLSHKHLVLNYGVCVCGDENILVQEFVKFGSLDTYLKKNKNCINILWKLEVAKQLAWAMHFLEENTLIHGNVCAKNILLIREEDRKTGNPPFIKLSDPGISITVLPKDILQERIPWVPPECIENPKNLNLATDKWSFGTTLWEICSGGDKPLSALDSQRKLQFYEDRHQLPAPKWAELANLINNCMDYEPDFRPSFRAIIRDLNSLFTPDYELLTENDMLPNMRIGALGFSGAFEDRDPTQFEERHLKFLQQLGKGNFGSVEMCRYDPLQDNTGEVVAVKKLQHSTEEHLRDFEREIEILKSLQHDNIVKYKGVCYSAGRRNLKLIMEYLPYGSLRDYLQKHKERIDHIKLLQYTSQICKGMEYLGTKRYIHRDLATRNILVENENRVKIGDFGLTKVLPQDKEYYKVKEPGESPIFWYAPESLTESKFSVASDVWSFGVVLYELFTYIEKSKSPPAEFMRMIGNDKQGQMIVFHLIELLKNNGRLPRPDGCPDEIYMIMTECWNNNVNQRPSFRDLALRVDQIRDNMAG

SMILES | IC50 [1] [nM] | IC50 (JAK2 V617F) [nM] | IC50 (JAK2 WT) [nM] | STAT5 phosphorylation relative to untreated controls [2] | STAT3 phosphorylation relative to untreated controls [3] | EC50 [4] [nM] | IC50 (JAK2 kinase [5]) [nM] | STAT3 staining localisation ([6]; 5 μM, 1, 5 or 24 hours) | Reduction of nuclear STAT3 compared with untreated samples ([6]; 5 μM, 24 h after treatment) | IC50 (JAK2 kinase [7]) [nM]
CN1CCN(c2ccc(Nc3nccc(Nc4ccc(F)c(Cl)c4)n3)cc2)CC1 [Compound 1-4, N4-(3-chloro-4-fluorophenyl)-N2-(4-(4-methylpiperazin-1-yl)phenyl)pyrimidine-2,4-diamine] | < 10 | < 1000 | < 1000 | reduced levels | reduced levels | 299 | < 1000 | confined outside the nucleus | greater than 50% | < 1000
CN1CCN(c2ccc(Nc3nccc(Nc4cccc(CC#N)c4)n3)cc2)CC1 [Compound 1-7, 2-(3-(2-(4-(4-Methylpiperazin-1-yl)phenylamino)pyrimidin-4-ylamino)phenyl)acetonitrile] | < 10 | < 1000 | < 1000 |  |  | 4 | < 1000 |  |  | < 1000
CN1CCN(c2ccc(Nc3nccc(Nc4cccc(CC#N)c4)n3)cc2F)CC1 [Compound 1-11, 2-(3-(2-(3-Fluoro-4-(4-methylpiperazin-1-yl)phenylamino)pyrimidin-4-ylamino)phenyl)acetonitrile] | < 10 | < 1000 | < 1000 |  |  | 65.8 | < 1000 |  |  | < 1000
CN1CCN(C(=O)c2ccc(Nc3nccc(Nc4cccc(CC#N)c4)n3)cc2)CC1 [Compound 1-17, 2-(3-(2-(4-(4-methylpiperazine-1-carbonyl)phenylamino)pyrimidin-4-ylamino)phenyl)acetonitrile] | < 10 | < 1000 | < 1000 |  |  | 266 | < 1000 |  |  | < 1000
